Results taken from publication PMC6747318, “Mutual Enhancement of Opioid and Adrenergic Receptors by Combinations of Opioids and Adrenergic Ligands Is Reflected in Molecular Complementarity of Ligands: Drug Development Possibilities” (International Journal of Molecular Sciences, 2019).
Where a name gives a salt, the structure may show the parent alone.

Target: T1, mu opioid receptor (muOPR) peptide 38–51 (Homo sapiens, UniProt P35372)
Assay: not given
Details: not given
In the case of `NCCc1c[nH]cn1` [Histamine], the “binding to Mu 38–51” value is reported as “no binding”.

Target: not listed separately
Assay: UV spectroscopy binding between compounds: binding to ascorbic acid
Details: read-out: Kd @ 200 nm, binding to Asc, pH 7.4 sodium phosphate buffer
With `NCCc1ccc(O)cc1` [Tyramine] the Kd was 200 µM. In the case of `N[C@@H](Cc1ccc(O)c(O)c1)C(=O)O` [L-DOPA, L-3,4-dihydroxyphenylalanine], the Kd is reported as 100 µM. In the case of `CNC[C@H](O)c1cccc(O)c1` [Phenylephrine], the Kd is reported as over 1000 µM. Work on `CNC[C@H](O)c1ccc(O)c(O)c1` [Epinephrine HCl] yielded a Kd of 90 µM. `NCCc1c[nH]cn1` [Histamine] showed a Kd of over 1000 µM. Work on `N[C@@H](Cc1ccccc1)C(=O)O` [Phenylalanine] yielded a Kd of over 1000 µM. Molecule `CC(C)(C)NCC(O)c1ccc(O)c(CO)c1` (centres unmarked) [Salbutamol] has a Kd of 160 µM.

Target: not listed separately
Assay: UV spectroscopy binding between compounds: binding to propranolol
Details: read-out: Kd @ 200 nm, binding to Prop, high affinity binding; double curve, first value
Molecule `CNC[C@H](O)c1ccc(O)c(O)c1` [Epinephrine HCl] has a Kd of 45 µM. With `CC(C)(C)NCC(O)c1ccc(O)c(CO)c1` (centres unmarked) [Salbutamol] the Kd was 1 µM.

Same assay, conditions: read-out: Kd @ 200 nm, binding to Prop, low affinity binding; double curve, second value
Molecule `CNC[C@H](O)c1ccc(O)c(O)c1` [Epinephrine HCl] has a Kd of 1000 µM. For `CC(C)(C)NCC(O)c1ccc(O)c(CO)c1` (centres unmarked) [Salbutamol], the Kd was 130 µM.

Same assay, conditions: read-out: Kd @ 200 nm, binding to Prop; UV spectroscopy, pH 7.4 sodium phosphate buffer; single binding constant
With `NCCc1ccc(O)cc1` [Tyramine] the Kd was 80 µM. For `N[C@@H](Cc1ccc(O)c(O)c1)C(=O)O` [L-DOPA, L-3,4-dihydroxyphenylalanine], the Kd was 15 µM. With `CNC[C@H](O)c1cccc(O)c1` [Phenylephrine] the Kd was 20 µM. Work on `NCCc1c[nH]cn1` [Histamine] yielded a Kd of 110 µM.

Target: T2, beta 2 adrenergic receptor (B2AR) 97–103 (Homo sapiens, UniProt P07550)
T2 construct: B2AR 97–103
Assay: UV spectroscopy binding to receptor peptide B2AR 97–103
Details: read-out: Kd @ 200 nm, B2AR 97–103
Protocol: (§1) After the solutions were made, a 96-well quartz crystal plate was prepared to be run through the spectrophotometer at room temperature (ca. 24 °C). […] The absorbance of each receptor peptide without the presence of the adrenergic compound was measured as well. The absorbance of each well was measured at every 10 nm increment from 190 nm to 260 nm. The maximum absorbance that can be measured was set to four. Each well had 200 μL of solution, so if the absorbance of one component was being measured, it was diluted by half with a phosphate buffer.
(§2) If the measured absorbance is different than the additive absorbance of each compound, then that indicates some sort of molecular interaction. The binding can be quantified by graphing the difference in absorbance against the concentration of the compound varied to provide a binding curve. The data are analyzed by finding the additive absorbance and plotting the difference between this absorbance and the actual absorbance against the concentration of the adrenergic compound. The absorbance for the phosphate buffer is subtracted for each well before any calculations are done. […] The binding constants were estimated from the half-saturation point.
For `NCCc1c[nH]cn1` [Histamine], the Kd was over 1000 µM.

Target: T1, mu opioid receptor (muOPR) peptide 38–51
Assay: biochemical
Details: not given
`CNC[C@H](O)c1cccc(O)c1` [Phenylephrine] showed a Kd of about 1.3 µM.

Target: methionine-enkephalin (Homo sapiens, UniProt P01210)
Assay: UV spectroscopy binding between compounds: binding to methionine-enkephalin
Parameters: M-Enk = methionine-enkephalin; purchased Sigma-Aldrich
Details: Kd @ 200 nm, binding to M-Enk, UV spectroscopy, pH 7.4 sodium phosphate buffer; single binding constant
`NCCc1ccc(O)cc1` [Tyramine] gave a Kd of 12 µM. `N[C@@H](Cc1ccc(O)c(O)c1)C(=O)O` [L-DOPA, L-3,4-dihydroxyphenylalanine] showed a Kd of 70 µM. With `NCCc1c[nH]cn1` [Histamine] the Kd was over 1000 µM. In the case of `CC(C)(C)NCC(O)c1ccc(O)c(CO)c1` (centres unmarked) [Salbutamol], the Kd is reported as 30 µM.

Same assay, conditions: Kd @ 200 nm, binding to M-Enk, high affinity binding, double curve, first value
With `CNC[C@H](O)c1ccc(O)c(O)c1` [Epinephrine HCl] the Kd was 5.8 µM.

Same assay, conditions: UV spectroscopy, pH 7.4 sodium phosphate buffer; single binding constant; read-out: Kd @ 200 nm, binding to M-Enk
`N[C@@H](Cc1ccccc1)C(=O)O` [Phenylalanine] gave a Kd of over 1000 µM.

Same assay, conditions: read-out: Kd @ 200 nm, binding to M-Enk, low affinity binding; double curve, second value
In the case of `CNC[C@H](O)c1ccc(O)c(O)c1` [Epinephrine HCl], the Kd is reported as 40 µM.

Target: T3, insulin receptor (INSR) 281–299 (Homo sapiens, UniProt P06213)
T3 construct: INSR 281–299
Assay: UV spectroscopy binding to control peptide INSR 281–299
Details: control sequence; read-out: Kd @ 200 nm, INSR 281–299
Protocol: as §1, §2
`CNC[C@H](O)c1ccc(O)c(O)c1` [Epinephrine HCl] gave a Kd of 200 µM. `NCCc1c[nH]cn1` [Histamine] showed a Kd of over 1000 µM.

Target: T4, beta 2 adrenergic receptor (B2AR) 175–188 (Homo sapiens, UniProt P07550)
T4 construct: B2AR 175–188
Assay: UV spectroscopy binding to receptor peptide B2AR 175–188
Details: single binding constant; read-out: Kd @ 200 nm, B2AR 175–188
Protocol: as §1, §2
`NCCc1c[nH]cn1` [Histamine] showed a Kd of over 1000 µM.

Target: not listed separately
Assay: UV spectroscopy binding between compounds: binding to naloxone
Details: pH 7.4 sodium phosphate buffer, read-out: Kd @ 200 nm, binding to NAL
With `NCCc1ccc(O)cc1` [Tyramine] the Kd was 90 µM. Molecule `CNC[C@H](O)c1cccc(O)c1` [Phenylephrine] has a Kd of 20 µM. `CNC[C@H](O)c1ccc(O)c(O)c1` [Epinephrine HCl] gave a Kd of 100 µM. `NCCc1c[nH]cn1` [Histamine] showed a Kd of 210 µM. Work on `N[C@@H](Cc1ccccc1)C(=O)O` [Phenylalanine] yielded a Kd of 70 µM. For `CC(C)(C)NCC(O)c1ccc(O)c(CO)c1` (centres unmarked) [Salbutamol], the Kd was 180 µM.

Target: T5, insulin receptor (INSR) 157–166 (Homo sapiens, UniProt P06213)
T5 construct: INSR 157–166
Assay: UV spectroscopy binding to control peptide INSR 157–166
Details: control sequence; read-out: Kd @ 200 nm, INSR 157–166
Protocol: as §1, §2
For `CNC[C@H](O)c1ccc(O)c(O)c1` [Epinephrine HCl], the Kd was over 1000 µM. Work on `NCCc1c[nH]cn1` [Histamine] yielded a Kd of 110 µM.

Target: not listed separately
Assay: UV spectroscopy binding between compounds: binding to methadone
Details: pH 7.4 sodium phosphate buffer, read-out: Kd @ 200 nm, binding to Meth
Work on `NCCc1ccc(O)cc1` [Tyramine] yielded a Kd of 210 µM. With `N[C@@H](Cc1ccc(O)c(O)c1)C(=O)O` [L-DOPA, L-3,4-dihydroxyphenylalanine] the Kd was 80 µM. In the case of `CNC[C@H](O)c1cccc(O)c1` [Phenylephrine], the Kd is reported as over 1000 µM. With `CNC[C@H](O)c1ccc(O)c(O)c1` [Epinephrine HCl] the Kd was 300 µM. Molecule `NCCc1c[nH]cn1` [Histamine] has a Kd of over 1000 µM. With `N[C@@H](Cc1ccccc1)C(=O)O` [Phenylalanine] the Kd was over 1000 µM. With `CC(C)(C)NCC(O)c1ccc(O)c(CO)c1` (centres unmarked) [Salbutamol] the Kd was over 1000 µM.

Target: T6, intact mu opioid receptors (muOPRs) (Homo sapiens, UniProt P35372)
T6 sequence (P35372 whole entry): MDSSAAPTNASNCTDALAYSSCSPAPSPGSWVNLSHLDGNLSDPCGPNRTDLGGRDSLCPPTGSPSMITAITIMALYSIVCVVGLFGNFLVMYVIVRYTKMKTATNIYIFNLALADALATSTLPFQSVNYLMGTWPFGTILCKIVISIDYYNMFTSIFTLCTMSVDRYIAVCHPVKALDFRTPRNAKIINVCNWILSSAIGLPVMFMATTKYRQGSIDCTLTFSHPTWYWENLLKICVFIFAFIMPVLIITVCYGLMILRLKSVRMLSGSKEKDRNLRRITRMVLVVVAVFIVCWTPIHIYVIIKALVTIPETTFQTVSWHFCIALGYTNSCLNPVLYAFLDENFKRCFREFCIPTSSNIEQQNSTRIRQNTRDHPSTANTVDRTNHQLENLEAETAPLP
Assay: not given
Details: cited from earlier work
In the case of `NCCc1c[nH]cn1` [Histamine], the “binding to intact muOPRs” value is listed as “does not bind”.

Target: not listed separately
Assay: UV spectroscopy binding between compounds: binding to amphetamine
Details: read-out: Kd @ 200 nm, binding to Amph; UV spectroscopy, pH 7.4 sodium phosphate buffer; single binding constant
With `NCCc1ccc(O)cc1` [Tyramine] the Kd was 60 µM. For `N[C@@H](Cc1ccc(O)c(O)c1)C(=O)O` [L-DOPA, L-3,4-dihydroxyphenylalanine], the Kd was 11 µM. `CNC[C@H](O)c1cccc(O)c1` [Phenylephrine] gave a Kd of 17 µM. In the case of `CNC[C@H](O)c1ccc(O)c(O)c1` [Epinephrine HCl], the Kd is reported as 4.5 µM. `NCCc1c[nH]cn1` [Histamine] gave a Kd of 70 µM. `N[C@@H](Cc1ccccc1)C(=O)O` [Phenylalanine] gave a Kd of 85 µM. In the case of `CC(C)(C)NCC(O)c1ccc(O)c(CO)c1` (centres unmarked) [Salbutamol], the Kd is reported as 0.6 µM.

Target: not listed separately
Assay: UV spectroscopy binding between compounds: binding to glucose
Details: read-out: Kd @ 200 nm, binding to Glucose, pH 7.4 sodium phosphate buffer
Molecule `NCCc1ccc(O)cc1` [Tyramine] has a Kd of over 1000 µM. For `N[C@@H](Cc1ccc(O)c(O)c1)C(=O)O` [L-DOPA, L-3,4-dihydroxyphenylalanine], the Kd was over 1000 µM. Molecule `CNC[C@H](O)c1cccc(O)c1` [Phenylephrine] has a Kd of over 1000 µM. `CNC[C@H](O)c1ccc(O)c(O)c1` [Epinephrine HCl] gave a Kd of over 1000 µM. Work on `NCCc1c[nH]cn1` [Histamine] yielded a Kd of over 1000 µM. With `N[C@@H](Cc1ccccc1)C(=O)O` [Phenylalanine] the Kd was over 1000 µM. `CC(C)(C)NCC(O)c1ccc(O)c(CO)c1` (centres unmarked) [Salbutamol] showed a Kd of over 1000 µM.

Target: T6, intact mu opioid receptors (muOPRs)
Assay: not given
Assay type: binding
Parameters: intact mu opioid receptors (muOPRs); deca-histidine tag (N); made in house; host or cells: E. coli C43 (DE3)
Details: not given
With `CNC[C@H](O)c1ccc(O)c(O)c1` [Epinephrine HCl] the “ligand binding to intact muOPRs” value was “bound at mid-micromolar concentrations”.

Target: not listed separately
Assay: UV spectroscopy binding between compounds: binding to riboflavin
Details: pH 7.4 sodium phosphate buffer, read-out: Kd @ 200 nm, binding to Ribo
Work on `NCCc1ccc(O)cc1` [Tyramine] yielded a Kd of 40 µM. Molecule `N[C@@H](Cc1ccc(O)c(O)c1)C(=O)O` [L-DOPA, L-3,4-dihydroxyphenylalanine] has a Kd of over 1000 µM. With `CNC[C@H](O)c1cccc(O)c1` [Phenylephrine] the Kd was over 1000 µM. With `CNC[C@H](O)c1ccc(O)c(O)c1` [Epinephrine HCl] the Kd was over 1000 µM. In the case of `NCCc1c[nH]cn1` [Histamine], the Kd is reported as over 1000 µM. For `N[C@@H](Cc1ccccc1)C(=O)O` [Phenylalanine], the Kd was 50 µM. With `CC(C)(C)NCC(O)c1ccc(O)c(CO)c1` (centres unmarked) [Salbutamol] the Kd was 50 µM.

Target: not listed separately
Assay: UV spectroscopy binding between compounds: binding to morphine sulfate
Details: read-out: Kd @ 200 nm, binding to Morph, high affinity binding; double curve, first value
`CNC[C@H](O)c1ccc(O)c(O)c1` [Epinephrine HCl] gave a Kd of 0.3 µM.

Same assay, conditions: read-out: Kd @ 200 nm, binding to Morph, low affinity binding; double curve, second value
`CNC[C@H](O)c1ccc(O)c(O)c1` [Epinephrine HCl] showed a Kd of 40 µM.

Same assay, conditions: read-out: Kd @ 200 nm, binding to Morph; UV spectroscopy, pH 7.4 sodium phosphate buffer; single binding constant
With `NCCc1ccc(O)cc1` [Tyramine] the Kd was 50 µM. In the case of `N[C@@H](Cc1ccc(O)c(O)c1)C(=O)O` [L-DOPA, L-3,4-dihydroxyphenylalanine], the Kd is reported as over 1000 µM. `CNC[C@H](O)c1cccc(O)c1` [Phenylephrine] gave a Kd of 0.13 µM. Molecule `NCCc1c[nH]cn1` [Histamine] has a Kd of over 1000 µM. In the case of `N[C@@H](Cc1ccccc1)C(=O)O` [Phenylalanine], the Kd is reported as over 1000 µM. With `CC(C)(C)NCC(O)c1ccc(O)c(CO)c1` (centres unmarked) [Salbutamol] the Kd was 0.3 µM.
